The text below walks through data of US20070286822A1, “Compounds for the Treatment of Periodontal Disease” (ANACOR PHARMACEUTICALS INC., priority 2006, published 2007).

Where only a bound is given, the exact number is not on record here.

For series [1], the system named is IL-1β. Put plainly: Pro-inflammatory cytokines: THP-1 cells, LPS, IL-1β. The series is classed as cell-based. As to conditions: Homo sapiens, 24 hr, read-out: IL-1β (anti-inflammatory data, pro-inflammatory cytokine). The procedure:
(§1) Anti-inflammatory data for 3-hydroxypyridine-2-carbonyloxy-bis(3-chloro-4-methylphenyl)-borane
(§2) Pro-inflammatory cytokines: THP-1 cells, LPS@ […], 24 hr

In series [2] the test system is IL-4. Put plainly: TH2 cytokines: PBMC, PHA, IL-4. The series is classed as cell-based. The settings on record: 24 h, read-out: IL-4 (anti-inflammatory data, TH2 cytokine). The procedure:
as §1
(§3) TH2 cytokines: PBMC, PHA@ […], 24 h

The subject of series [3] is IL-2. Put plainly: TH1 cytokines: PBMC, PHA, IL-2. Type of series: cell-based. The settings on record: 24 h, read-out: IL-2 (anti-inflammatory data, TH1 cytokine). The procedure: as §1
(§4) TH1 cytokines: PBMC, PHA@ […], 24 h

Series [4] deals with IL-13. Put plainly: TH2 cytokines: PBMC, PHA, IL-13. As to conditions: 24 h, read-out: IL-13 (anti-inflammatory data, TH2 cytokine). The series is classed as cell-based. The procedure: as §1, §3
Series [5] relates to TNF-α. Put plainly: Pro-inflammatory cytokines: THP-1 cells, LPS, TNF-α. The series is classed as cell-based. The settings on record: Homo sapiens, 24 hr, read-out: TNF-α (anti-inflammatory data, pro-inflammatory cytokine). The procedure:
as §1, §2

The test system of series [6] is IL-10. Put plainly: TH2 cytokines: PBMC, PHA, IL-10. The settings on record: 24 h, read-out: IL-10 (anti-inflammatory data, TH2 cytokine). Type of series: cell-based. The procedure:
as §1, §3

For series [7], the system named is IL-8. Put plainly: Pro-inflammatory cytokines: THP-1 cells, LPS, IL-8. The series is classed as cell-based. As to conditions: Homo sapiens, 24 hr, read-out: IL-8 (anti-inflammatory data, pro-inflammatory cytokine). The procedure: as §1, §2
The test system of series [8] is IL-3. Put plainly: Regulatory cytokine: PBMC, PHA, IL-3. Type of series: cell-based. As to conditions: 24 h, read-out: IL-3 (anti-inflammatory data, regulatory cytokine). The procedure:
as §1
Regulatory cytokine: PBMC, PHA@ […], 24 h

The test system of series [9] is IFN-g. Put plainly: TH1 cytokines: PBMC, PHA, IFN-g. The series is classed as cell-based. As to conditions: 24 h, read-out: IFN-g (anti-inflammatory data, TH1 cytokine). The procedure:
as §1, §4

In series [10] the test system is IL-5. Put plainly: TH2 cytokines: PBMC, PHA, IL-5. The settings on record: 24 h, read-out: IL-5 (anti-inflammatory data, TH2 cytokine). Type of series: cell-based. The procedure: as §1, §3
Series [11] relates to IL-6. Put plainly: Pro-inflammatory cytokines: THP-1 cells, LPS, IL-6. The series is classed as cell-based. As to conditions: Homo sapiens, 24 hr, read-out: IL-6 (anti-inflammatory data, pro-inflammatory cytokine). The procedure: as §1, §2

Turning to `Cc1ccc(B(OC(=O)c2ncccc2O)c2ccc(C)c(Cl)c2)cc1Cl` [3-hydroxypyridine-2-carbonyloxy-bis(3-chloro-4-methylphenyl)-borane], the IC50 is 1 µM in [1]; over 25 µM in series [2]; over 25 µM in [3]; over 10 µM in series [4]; 2.7 µM in series [5]; 14.5 µM in [6]. Also, the IC50 in series [7] is 9.6 µM; in series [8] it was over 10 µM; in series [9] it was over 25 µM; in [10], 9.3 µM; in series [11] it was 5.3 µM. As usually defined, the melting point is the temperature of the solid-liquid transition. On to `OB1OCc2ccc(N3CCN(c4ccccc4)CC3)cc21` [C53, 6-(4-phenylpiperazin-1-yl)benzo[c][1,2]oxaborol-1(3H)-ol], for which the melting point lay in the range of 159 to 161 °C. Same read-out and setting: the figure for `N#Cc1ccc(Oc2cccc3c2B(O)OC3)cc1` [C74, 4-(1-hydroxy-1,3-dihydrobenzo[c][1,2]oxaborol-7-yloxy)benzonitrile] is 148 to 153 °C; for `OB1OCc2cc3c(cc21)OCO3` [C69, 5,6-methylenedioxybenzo[c][1,2]oxaborol-1(3H)-ol] it is 185 to 189 °C; for `COc1ccc2c(c1)COB2O` [C7, 5-methoxybenzo[c][1,2]oxaborol-1(3H)-ol] it is 102 to 104 °C. As to `CCOC(=O)COc1ccc2c(c1)COB2O` [C41, Ethyl 2-(1-hydroxy-1,3-dihydrobenzo[c][1,2]oxaborol-5-yloxy)acetate], the melting point fell in the range of 134 to 137 °C. In the case of `OB1OCc2ccc(-n3cc(Sc4ccccc4)c4ccccc43)cc21` [C66, 6-(3-(phenylthio)-1H-indol-1-yl)benzo[c][1,2]oxaborol-1(3H)-ol], the melting point was 159 to 163 °C. On to `CC(=O)Nc1ccc2c(c1)B(O)OC2` [C63, N-(1-hydroxy-1,3-dihydrobenzo[c][1,2]oxaborol-6-yl)acetamide], for which the melting point was 176 to 185 °C. Still for that read-out and setting: the figure for `OB1OCc2cc3c(cc21)COB3O` [C60, 3,7-dihydro-1,5-dihydroxy-1H,3H-Benzo[1,2-c:4,5-c′]bis[1,2]oxaborole] is over 250 °C; for `OB1OCc2ccc(Oc3ccc(Cl)cc3)cc21` [C20, 6-(4-chlorophenoxy)benzo[c][1,2]oxaborol-1(3H)-ol] it is 119 to 130 °C. The same measure, in the same setting: the figure for `O=C(O)COc1ccc2c(c1)COB2O` [C42, 2-(1-hydroxy-1,3-dihydrobenzo[c][1,2]oxaborol-5-yloxy)acetic acid] is 163 to 166 °C; for `OB1OCc2ccc(N(Cc3ccccc3)Cc3ccccc3)cc21` [C78, 6-(dibenzylamino)benzo[c][1,2]oxaborol-1(3H)-ol] it is 115 to 123 °C.

Regarding `N#Cc1cccc(Oc2ccc3c(c2)B(O)OC3)c1` [C19, 3-(1-hydroxy-1,3-dihydrobenzo[c][1,2]oxaborol-6-yloxy)benzonitrile], the melting point was 146 to 149 °C. On the same count and under the same terms, the figure for `Cc1cscc1B1OCc2cc(F)ccc21` [compound 14, 1,3-Dihydro-5-fluoro-1-(4-methylthiophen-3-yl)-2,1-benzoxaborole] is 51 to 53 °C. Same read-out and setting: the figure for `[O-][S+](c1ccc(C(F)(F)F)cc1)c1ccc2c(c1)B(O)OC2` (stereo not drawn) [C93, 6-(4-(trifluoromethyl)phenylsulfinyl)benzo[c][1,2]oxaborol-1(3H)-ol] is 79 to 88 °C; for `OB1OCc2ccc(-n3ccc4cc(Cl)ccc43)cc21` [C75, 6-(5-chloro-1H-indol-1-yl)benzo[c][1,2]oxaborol-1(3H)-ol] it is 149 to 154 °C. Still for that read-out and setting: in the case of `Cc1cccc(B2OCc3cc(F)ccc32)c1` [9i, 1,3-Dihydro-5-fluoro-1-(3-methylphenyl)-2,1-benzoxaborole] it was 48 to 49 °C.
